From ChEMBL document CHEMBL1201862, “PubChem BioAssay data set” (2004) come the findings set out here.

Test [1] is described as follows: Luminescence Cell-Based Dose Response HTS to Identify Activators of Luciferase Translation or Activity in H4 […] Cells. [Related pubchem assays: 1829 (Project Summary), 1814 (Primary HTS)]. The class given is functional.
In a further test the test system is H4. Put plainly: Luminescence Cell-Based Dose Response HTS to Identify Activators of 5'UTR Stem-Loop Driven Prion Protein mRNA Translation in H4 Neuroglioblastoma Cells. [Related pubchem assays: 1829 (Project Summary), 1814 (Primary HTS)]. The note with it: Homo sapiens. The class given is functional.
The nature of test [2]: Luminescence Cell-Based Dose Confirmation HTS to Identify Activators of 5'UTR Stem-Loop Driven Alpha-Synuclein mRNA Translation in H4 Neuroglioblastoma Cells. [Related pubchem assays: 1829 (Project Summary), 1814 (Primary HTS)]. The class given is functional.
The target in another test is Cytochrome P450 2C9 (Homo sapiens, UniProt P11712).
A further test deals with Cytochrome P450 2D6 (Homo sapiens, UniProt P10635).
A further test concerns the target Cytochrome P450 2C19 (Homo sapiens, UniProt P33261). Briefly: Cytochrome panel assay with activity outcomes. Panel member name: p450-cyp2c19 Compounds with AC50 equal or less than 10 uM are considered active. Particulars: read-out: AC50. Type of test: functional.
A further test has as its system Streptococcus. Put plainly: GAS UMAA2166 growth inhibition – luminescence, BacTiterGlo, counter-screen for streptokinase expression inhibitor project, dose response (AID 1915).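 Note: potency for reduction of bacterial viability or growth.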 Type of test: functional, organism-based. (Counterscreens check selectivity or assay interference.)
The test system of test [3] is Streptococcus sp. 'group A'. Briefly: Streptococcus pyogenes SK(-)GAS viability under kanamycin – luminescence, BacTiterGlo, confirmation, counter-screen for streptokinase expression inhibitor project, dose response (AID 1900). The class given is functional, organism-based.
The target of the next test is T1, Streptokinase A (Streptococcus pyogenes serotype M1, UniProt P10520).
T1 sequence (P10520 whole entry): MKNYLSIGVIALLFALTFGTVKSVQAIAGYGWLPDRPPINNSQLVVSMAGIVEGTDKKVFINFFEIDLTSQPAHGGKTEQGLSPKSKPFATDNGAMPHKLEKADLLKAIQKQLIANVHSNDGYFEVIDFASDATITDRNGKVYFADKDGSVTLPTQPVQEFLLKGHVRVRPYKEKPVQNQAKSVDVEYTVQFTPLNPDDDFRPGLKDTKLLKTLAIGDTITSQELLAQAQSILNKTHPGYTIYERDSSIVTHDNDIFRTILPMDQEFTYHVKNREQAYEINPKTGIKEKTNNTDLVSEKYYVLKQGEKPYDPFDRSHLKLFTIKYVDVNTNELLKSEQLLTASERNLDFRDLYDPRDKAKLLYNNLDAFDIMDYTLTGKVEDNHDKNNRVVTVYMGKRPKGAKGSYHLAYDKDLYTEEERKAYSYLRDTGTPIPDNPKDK
Put plainly: viability-normalized secreted streptokinase activity reduction – plasminogen activation absorbance, OD405, dose response (AID 1914).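 Note: secreted streptokinase activity via plasminogen activation per viability signal from cell pellet.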 The class given is functional, Streptococcus pyogenes M1 GAS.

Test [4] is described as follows: NIH3T3 cell viability loss – ATP luminescence, mouse fibroblasts, counter-screen, dose response (AID 2010).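 Note: cells exposed to compound for about 90 hours before reading.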 Type of test: functional, cell-based.
A short description of test [5]: Trypanosoma cruzi growth suppression in host cells – NIH3T3 host cells, beta-gal luminescence, confirmation (AID 2044).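 Note: intracellular parasites grown in NIH/3T3 mouse fibroblasts as host cells; luminescent beta-galactosidase reporter signal from transgenic T. cruzi replicating inside host cells; inhibitors lower the luminescence signal.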 Type of test: functional, cell-based.
Test [6] has as its target T2, Replicative DNA helicase DnaB (Mycobacterium tuberculosis, UniProt P9WMR3).
T2 sequence (P9WMR3 whole entry): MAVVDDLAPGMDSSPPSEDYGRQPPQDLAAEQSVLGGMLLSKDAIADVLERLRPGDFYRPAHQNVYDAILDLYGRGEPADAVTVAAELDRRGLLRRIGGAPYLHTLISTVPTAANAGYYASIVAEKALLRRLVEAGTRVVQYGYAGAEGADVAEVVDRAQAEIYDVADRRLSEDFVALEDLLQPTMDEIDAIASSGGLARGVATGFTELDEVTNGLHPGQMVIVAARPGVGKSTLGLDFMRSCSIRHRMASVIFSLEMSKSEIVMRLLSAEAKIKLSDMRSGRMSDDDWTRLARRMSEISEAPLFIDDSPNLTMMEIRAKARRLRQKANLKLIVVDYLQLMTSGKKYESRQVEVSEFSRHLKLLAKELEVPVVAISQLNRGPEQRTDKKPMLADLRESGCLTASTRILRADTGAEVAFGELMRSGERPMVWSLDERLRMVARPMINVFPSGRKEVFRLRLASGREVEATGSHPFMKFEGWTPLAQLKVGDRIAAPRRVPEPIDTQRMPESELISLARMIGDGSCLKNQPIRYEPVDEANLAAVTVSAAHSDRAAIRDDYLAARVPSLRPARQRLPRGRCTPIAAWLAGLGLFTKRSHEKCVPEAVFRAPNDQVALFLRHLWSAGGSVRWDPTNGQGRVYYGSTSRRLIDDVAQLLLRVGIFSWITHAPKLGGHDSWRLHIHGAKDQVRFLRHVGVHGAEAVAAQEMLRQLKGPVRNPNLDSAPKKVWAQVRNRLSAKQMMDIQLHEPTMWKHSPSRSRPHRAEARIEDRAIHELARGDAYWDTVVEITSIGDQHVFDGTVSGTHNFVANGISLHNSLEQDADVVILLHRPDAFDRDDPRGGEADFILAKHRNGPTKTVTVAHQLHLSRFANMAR
Briefly: DnaB intein splicing inhibitors, dose response, biochemical, cell-free fluorescence (AID 449749). Type of test: functional.

A further test deals with T3, Protein RecA (Mycobacterium tuberculosis, UniProt P9WHJ3).
T3 sequence (P9WHJ3 whole entry): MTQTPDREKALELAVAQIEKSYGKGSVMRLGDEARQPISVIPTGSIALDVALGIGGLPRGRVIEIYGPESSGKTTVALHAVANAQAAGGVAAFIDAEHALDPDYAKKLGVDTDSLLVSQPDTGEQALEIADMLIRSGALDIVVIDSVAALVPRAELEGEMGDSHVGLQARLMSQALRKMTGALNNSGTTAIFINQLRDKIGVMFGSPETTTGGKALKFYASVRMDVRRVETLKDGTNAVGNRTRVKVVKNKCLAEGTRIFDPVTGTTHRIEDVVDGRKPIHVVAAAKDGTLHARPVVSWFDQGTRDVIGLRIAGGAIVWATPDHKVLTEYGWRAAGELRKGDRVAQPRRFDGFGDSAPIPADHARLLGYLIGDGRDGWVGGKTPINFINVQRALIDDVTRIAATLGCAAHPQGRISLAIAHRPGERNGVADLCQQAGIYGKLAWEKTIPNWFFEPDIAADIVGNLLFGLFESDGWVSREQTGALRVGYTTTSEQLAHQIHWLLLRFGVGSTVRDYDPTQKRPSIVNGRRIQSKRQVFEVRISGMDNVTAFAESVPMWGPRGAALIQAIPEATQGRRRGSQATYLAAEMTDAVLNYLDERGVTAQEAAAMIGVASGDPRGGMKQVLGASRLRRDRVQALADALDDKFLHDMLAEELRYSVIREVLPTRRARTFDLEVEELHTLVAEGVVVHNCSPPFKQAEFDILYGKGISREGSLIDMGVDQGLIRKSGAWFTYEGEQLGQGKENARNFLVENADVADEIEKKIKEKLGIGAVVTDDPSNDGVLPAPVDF
Put plainly: Fluorescence Cell-Free Homogeneous Dose Retest to Identify Inhibitors of RecA-Intein Splicing Activity. [Related pubchem assays (depositor defined):AID2097, AID2223, AID489010, AID492950]. The class given is functional.

The next test has as its target T4, Leucine aminopeptidase (Plasmodium falciparum 3D7, UniProt Q8IL11).
T4 sequence (Q8IL11 whole entry): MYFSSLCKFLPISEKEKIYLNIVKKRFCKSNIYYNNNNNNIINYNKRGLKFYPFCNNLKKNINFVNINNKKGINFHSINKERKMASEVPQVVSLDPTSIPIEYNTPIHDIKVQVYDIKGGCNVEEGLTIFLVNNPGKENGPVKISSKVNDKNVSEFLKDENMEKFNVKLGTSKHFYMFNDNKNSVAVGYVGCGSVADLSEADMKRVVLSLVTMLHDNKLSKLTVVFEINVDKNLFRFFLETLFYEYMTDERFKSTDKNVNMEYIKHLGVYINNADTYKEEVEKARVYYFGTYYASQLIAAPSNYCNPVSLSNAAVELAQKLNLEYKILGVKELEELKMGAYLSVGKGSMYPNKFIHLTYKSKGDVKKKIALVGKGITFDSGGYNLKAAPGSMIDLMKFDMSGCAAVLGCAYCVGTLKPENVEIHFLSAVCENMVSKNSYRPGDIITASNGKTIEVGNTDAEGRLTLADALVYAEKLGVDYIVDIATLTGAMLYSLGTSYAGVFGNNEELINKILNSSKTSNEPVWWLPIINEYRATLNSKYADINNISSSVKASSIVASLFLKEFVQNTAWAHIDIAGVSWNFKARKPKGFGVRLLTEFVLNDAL
Put plainly: P. falciparum M17LAP inhibitors, primary screen, biochemical, fluorogenic H-Leu-NHMec substrate, 1536-well (AID 1619). The class given is functional.

The target in another test is T5, Cytochrome P450 1A2 (Homo sapiens, UniProt P05177).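 Note: PubChem cytochrome P450 panel assay, CYP1A2 panel member.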
T5 sequence (P05177 whole entry): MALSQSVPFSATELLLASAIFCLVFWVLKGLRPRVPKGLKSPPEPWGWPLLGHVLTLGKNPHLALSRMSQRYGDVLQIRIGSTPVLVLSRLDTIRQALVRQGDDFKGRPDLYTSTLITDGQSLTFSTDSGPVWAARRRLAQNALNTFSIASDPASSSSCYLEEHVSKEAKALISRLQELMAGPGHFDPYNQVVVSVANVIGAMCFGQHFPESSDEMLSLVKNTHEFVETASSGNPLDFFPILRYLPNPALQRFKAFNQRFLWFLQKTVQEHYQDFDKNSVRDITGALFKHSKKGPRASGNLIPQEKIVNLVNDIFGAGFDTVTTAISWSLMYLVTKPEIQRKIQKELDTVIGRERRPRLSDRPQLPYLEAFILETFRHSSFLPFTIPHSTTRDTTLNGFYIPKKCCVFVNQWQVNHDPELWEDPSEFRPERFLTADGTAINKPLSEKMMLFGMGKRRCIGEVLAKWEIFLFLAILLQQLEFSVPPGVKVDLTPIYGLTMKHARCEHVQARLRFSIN

The target in a further test is Cytochrome P450 3A4 (Homo sapiens, UniProt P08684).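 Note: CYP3A4 tested as one member of a cytochrome P450 panel screen.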

Structures are written as SMILES. Activity calls are given as the source filed them.

Cytochrome P450 2C9, sequence (P11712 whole entry): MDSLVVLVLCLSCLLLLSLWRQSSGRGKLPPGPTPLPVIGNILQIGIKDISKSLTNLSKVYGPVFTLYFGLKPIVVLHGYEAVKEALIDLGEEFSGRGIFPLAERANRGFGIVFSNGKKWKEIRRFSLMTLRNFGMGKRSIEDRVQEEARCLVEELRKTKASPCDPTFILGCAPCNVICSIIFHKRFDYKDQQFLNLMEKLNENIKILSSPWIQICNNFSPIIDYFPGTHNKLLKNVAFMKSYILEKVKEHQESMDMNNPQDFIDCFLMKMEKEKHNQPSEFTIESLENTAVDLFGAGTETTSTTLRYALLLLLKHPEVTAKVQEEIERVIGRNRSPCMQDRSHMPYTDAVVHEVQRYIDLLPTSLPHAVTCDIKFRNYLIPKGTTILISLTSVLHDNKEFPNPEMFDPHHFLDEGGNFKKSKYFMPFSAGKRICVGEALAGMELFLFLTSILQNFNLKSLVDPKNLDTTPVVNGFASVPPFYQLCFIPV
Cytochrome P450 2D6, sequence (P10635 whole entry): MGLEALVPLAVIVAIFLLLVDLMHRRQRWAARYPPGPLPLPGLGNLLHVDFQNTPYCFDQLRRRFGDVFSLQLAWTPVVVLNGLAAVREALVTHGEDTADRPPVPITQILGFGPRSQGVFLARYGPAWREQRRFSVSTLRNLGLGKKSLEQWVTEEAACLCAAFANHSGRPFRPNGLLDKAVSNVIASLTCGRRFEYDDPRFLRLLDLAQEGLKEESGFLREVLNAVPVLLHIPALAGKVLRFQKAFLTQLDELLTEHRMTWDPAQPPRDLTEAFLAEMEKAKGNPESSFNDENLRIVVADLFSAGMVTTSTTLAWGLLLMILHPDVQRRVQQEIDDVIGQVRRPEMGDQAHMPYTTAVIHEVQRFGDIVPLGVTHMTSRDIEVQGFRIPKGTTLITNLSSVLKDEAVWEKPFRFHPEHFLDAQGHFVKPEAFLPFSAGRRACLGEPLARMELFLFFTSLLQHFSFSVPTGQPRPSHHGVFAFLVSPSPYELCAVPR
Cytochrome P450 2C19, sequence (P33261 whole entry): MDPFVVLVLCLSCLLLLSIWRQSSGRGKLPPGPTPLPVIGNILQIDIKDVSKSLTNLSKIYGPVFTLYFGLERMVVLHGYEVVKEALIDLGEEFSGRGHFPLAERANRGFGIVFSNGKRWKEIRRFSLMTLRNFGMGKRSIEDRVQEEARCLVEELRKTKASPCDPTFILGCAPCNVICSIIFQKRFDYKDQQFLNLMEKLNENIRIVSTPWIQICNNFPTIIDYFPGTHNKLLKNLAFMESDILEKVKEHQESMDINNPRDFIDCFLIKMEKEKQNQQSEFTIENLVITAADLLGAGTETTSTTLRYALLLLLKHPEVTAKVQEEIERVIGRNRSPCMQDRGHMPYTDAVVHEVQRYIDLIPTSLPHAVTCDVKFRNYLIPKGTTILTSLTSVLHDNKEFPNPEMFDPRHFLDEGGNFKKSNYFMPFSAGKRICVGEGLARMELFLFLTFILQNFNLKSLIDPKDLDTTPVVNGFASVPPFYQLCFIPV
Cytochrome P450 3A4, sequence (P08684 whole entry): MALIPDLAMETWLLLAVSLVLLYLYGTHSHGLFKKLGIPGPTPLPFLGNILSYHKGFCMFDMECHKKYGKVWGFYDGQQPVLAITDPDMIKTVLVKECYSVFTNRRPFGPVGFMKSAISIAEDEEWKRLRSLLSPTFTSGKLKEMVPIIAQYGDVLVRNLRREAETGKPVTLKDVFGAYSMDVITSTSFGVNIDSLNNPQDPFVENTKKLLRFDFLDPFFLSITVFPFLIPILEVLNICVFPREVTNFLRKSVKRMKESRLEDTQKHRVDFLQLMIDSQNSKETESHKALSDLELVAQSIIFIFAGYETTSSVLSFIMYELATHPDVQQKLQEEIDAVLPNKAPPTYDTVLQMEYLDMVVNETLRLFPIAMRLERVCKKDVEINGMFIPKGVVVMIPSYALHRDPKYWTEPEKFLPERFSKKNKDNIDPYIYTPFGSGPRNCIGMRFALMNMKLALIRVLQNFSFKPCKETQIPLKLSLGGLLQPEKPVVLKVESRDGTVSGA

In general, EC50 refers to the concentration needed to bring the measured effect to its halfway point. As to `Cc1ccc(-c2nc(N3CCOCC3)s[n+]2-c2ccccc2)cc1.[O-][Cl+3]([O-])([O-])[O-]`, the EC50 is 7.52 µM (active) in test [1], 31.5 µM (active) in the test on H4 and 7.82 µM (active) in test [2].

As for `O=C(Nc1c(C(=O)Nc2ccc3c(c2)OCCO3)cnn1-c1ccccc1Cl)c1ccco1`, the 50% effective concentration (EC50) is 20.5 µM (active) in test [1], > 120 µM (not active) in the test with H4 and 20 µM (active) in test [2].

Broadly, the AC50 is the concentration at which the activity in the assay is half-maximal. Consider `O=C(NCCN1CCN(Cc2ccccc2)CC1)C1CC(=O)N(C2CCCC2)C1` (stereo unspecified), for which the AC50 is 0.398 µM (inconclusive) on Cytochrome P450 2C9 and 14.1 µM (inconclusive) at Cytochrome P450 2D6.

In the case of `Cn1c(CCNC(=O)c2cccs2)nnc1SCC(=O)Nc1nc(-c2ccccc2)cs1`, the EC50 in test [1] was 24.5 µM (active); in the test on H4, 27.3 µM (active); in test [2] it was > 120 µM (not active).

Turning to `Cc1ccc2nc(NC(=O)COC(=O)c3ccncc3)sc2c1`, the results for the EC50 (in [1]; in the test with H4; in [2]) were > 120 µM (not active), 11.4 µM (active) and > 120 µM (not active), respectively.

With `C/N=C(\c1ccc(C)cc1)n1c(=S)nc(-c2ccc(C)cc2)n(C)c1=S`, the results for the EC50 (in test [1]; in the test with H4; in [2]) were 15.4 µM (active), 21.3 µM (active) and > 120 µM (not active), respectively.

Consider `Cc1cccc(C)c1NC(=O)CSc1nc(C)c(CC(=O)c2ccc(Br)cc2)c(C)c1C#N`, for which the AC50 was 1.12 µM (inconclusive) on Cytochrome P450 2C9 and 35.5 µM (inconclusive) on Cytochrome P450 2C19.

Consider `CN(C(=O)c1ccc(OC2CCN(CCc3ccccc3)CC2)cc1)C1CCCCC1`, for which the EC50 in test [1] is 18.5 µM (active); in the test with H4, > 120 µM (not active); in test [2], 13.3 µM (active).

As for `O=C(Nc1nnc(C2CCCCC2)s1)c1ccc(Br)s1`, the EC50 was 65.3 µM (active) in test [1]; > 150 µM (not active) in the test on Streptococcus; 6.45 µM (active) in test [3]; 81.8 µM (active) in the test with H4; > 150 µM (not active) on Streptokinase A; 11.6 µM (active) in [2].

In the case of `Cc1ccc2[nH]c(C3CCCN(C(S)=Nc4ccccc4C)C3)nc2c1` (stereo unspecified), the results for the AC50 on Cytochrome P450 2C9 and at Cytochrome P450 2C19 were 3.16 µM (inconclusive) and 1.41 µM (inconclusive), respectively. Moreover, the concentration giving a half-maximal response (EC50) in test [4] was > 60 µM (not active); in [5], 0.443 µM (active).

As a reminder, the IC50 is the concentration that inhibits the measured activity by half. For `COC(=O)c1c(NC(=O)/C=C/C(=O)O)sc(C)c1-c1ccc(C)c(C)c1`, the AC50 in test [6] is 15.1 µM (active). Also, at Protein RecA, the EC50 was 5.69 µM (active). On Leucine aminopeptidase, the IC50 is 35.6 µM (active).

For `CCOC(=O)c1cnc(-n2nc(C)cc2C)nc1NCCO`, the AC50 on Cytochrome P450 2C9 was 20 µM (inconclusive); on Cytochrome P450 1A2, 14.1 µM (inconclusive); on Cytochrome P450 3A4, 25.1 µM (inconclusive).

Consider `COc1ccc2[nH]cc(C(=O)CN3CCC(C)CC3)c2c1`, for which the EC50 in test [1] is 17.6 µM (active); with H4, 14.4 µM (active); in test [2] it was 5.71 µM (active).

For `CCc1nc(SCC(=O)N2CCCc3ccccc32)c2oc3ccccc3c2n1`, the AC50 on Cytochrome P450 2C9 is 4.47 µM (inconclusive); on Cytochrome P450 2D6 it was 20 µM (inconclusive).

Regarding `COc1ccc(C(=O)N/N=C2/C(=O)c3c(C)cc(C)cc3CC2(C)C)cc1`, the AC50 on Cytochrome P450 2C9 is 6.31 µM (inconclusive); at Cytochrome P450 1A2, 5.01 µM (inconclusive).

Regarding `O=C(O)/C=C\c1ccc(O)c(O)c1`, the AC50 at Cytochrome P450 2C9 was 15.8 µM (inconclusive).
